Data on 28 compounds can be found in patent US4803223A (priority 1985, dated 1989).

For experiment [1], the system named is Ehrlich ascites carcinoma. Description: animal or person. In kind it is in vivo, mice (CD2F1-strain Swiss, female). The conditions noted are these: Mus musculus, ip, 1440 h, read-out: T/C (%).
The test system of experiment [2] is Walker carcinosarcoma 256. More on the design: species or system Sprague-Dawley rats (male). Conditions: rat, in vivo.
Another experiment has as its system P388 leukemia. Also on record: species or system CDF1-strain mice (male). Conditions: mouse, in vivo.

Where two headings read alike, the source gives them in different places.

For the compound `O=C(NCCCl)Nc1cccc(N(CC=CCCl)CCCl)c1` [Compound 27], the response vs control in vivo at 50 mg/kg in experiment [1] was 246%.
As to `CC=CCN(CCCl)c1cccc(NC(=O)NCCCl)c1` [Compound 24], the response vs control in vivo at 150 mg/kg in experiment [1] came out at 234%.
Regarding `CC(C)C=CCN(CCCl)c1ccc(NC(=O)NCCBr)cc1` [Compound 26], the “T/C (%)” value in experiment [2] (200 mg/kg) came to 216%.
As for `N#CCCN(CCCl)c1ccc(NC(=O)NCCI)cc1` [Compound 22], in experiment [2] (50 mg/kg), the “T/C (%)” value was 256%.
As for `C#CCN(CCCl)c1cccc(NC(=O)NCCCl)c1` [Compound 33], in experiment [2] (200 mg/kg), the “T/C (%)” value worked out at 169%.
Turning to `CC(C)N(CCBr)c1ccc(NC(=O)NCCCl)cc1` [Compound 13], in the experiment with P388 leukemia (100 mg/kg), the “T/C (%)” value stood at 134%.
On to `C=CCN(CCCl)c1ccc(NC(=O)NCCCl)cc1` [Compound 16], for which the response vs control in vivo at 150 mg/kg in experiment [1] was 235%.
`C#CC(C)N(CCI)c1ccc(NC(=O)NCCF)cc1` (stereo not shown) [Compound 34]: the response vs control in vivo at 150 mg/kg in experiment [1] is 199%.
Consider `CCCCCCN(CCCl)c1ccc(NC(=O)NCCF)cc1` [Compound 14], for which the response vs control in vivo at 50 mg/kg in experiment [1] was found to be 275%.
Regarding `COCCN(CCCl)c1ccc(NC(=O)NCCCl)cc1` [Compound 20], the response vs control in vivo at 50 mg/kg in experiment [1] was 281%.
Regarding `CCCN(CCCl)c1cccc(NC(=O)NCCBr)c1` [Compound 11], the response vs control in vivo at 100 mg/kg in experiment [1] amounted to 203%.
Turning to `CCSCCN(CCCl)c1ccc(NC(=O)NCCBr)cc1` [Compound 21], the “T/C (%)” value in experiment [2] (100 mg/kg) worked out at 207%.
As for `O=C(NCCCl)Nc1ccc(N(CCBr)CCCBr)cc1` [Compound 19], in experiment [2] (50 mg/kg), the “T/C (%)” value stood at 329%.
Consider `C#CN(CCCl)c1ccc(NC(=O)NCCBr)cc1` [Compound 17], for which, in experiment [1], the response vs control in vivo at 100 mg/kg was found to be 294%.
Take `O=C(NCCCl)Nc1ccc(N(CCl)CCCl)cc1` [Compound 18]: the “T/C (%)” value with P388 leukemia (25 mg/kg) is 154%.
With `CCCOC=CN(CCI)c1ccccc1NC(=O)NCCBr` [Compound 30], the response vs control in vivo at 200 mg/kg in experiment [1] came out at 205%.
Consider `CSC=CCN(CCCl)c1ccc(NC(=O)NCCCl)cc1` [Compound 31], for which, in experiment [1], the response vs control in vivo at 150 mg/kg stood at 184%.
For `C=CCC(CBr)N(CCBr)c1ccc(NC(=O)NCCBr)cc1` (stereo not shown) [Compound 28], the “T/C (%)” value in experiment [2] (25 mg/kg) was 182%.
As to `O=C(NCCCl)Nc1ccc(N(CCF)CCC=CCOc2ccccc2)cc1` [Compound 32], the “T/C (%)” value with P388 leukemia (50 mg/kg) is listed as 150%.
Take `C=CCCCN(CCCl)c1ccc(NC(=O)NCCCl)cc1` [Compound 25]: in experiment [1], the response vs control in vivo at 100 mg/kg was determined as 178%.
For `C=CC(C#N)N(CCCl)c1ccc(NC(=O)NCCCl)cc1` (stereo not shown) [Compound 29], the “T/C (%)” value in the experiment with P388 leukemia (25 mg/kg) is on record as 187%.
With `CC#CCCN(CCBr)c1ccc(NC(=O)NCCCl)cc1` [Compound 35], in experiment [1], the response vs control in vivo at 150 mg/kg came to 191%.
Regarding `O=C(NCCF)Nc1ccc(N(CCF)CCF)cc1` [Compound 8], in the experiment on P388 leukemia (25 mg/kg), the “T/C (%)” value is recorded as 134%.
For the compound `CN(CCBr)c1ccc(NC(=O)NCCBr)cc1` [Compound 12], the “T/C (%)” value in experiment [2] (50 mg/kg) stood at 329%.
Consider `CN(CCI)c1cccc(NC(=O)NCCI)c1` [Compound 15], for which, in experiment [2] (150 mg/kg), the “T/C (%)” value was 220%.
On to `C#CCCCCN(CCCl)c1ccc(NC(=O)NCCCl)cc1` [Compound 36], for which the response vs control in vivo at 100 mg/kg in experiment [1] is 186%.
The same measure, in the same setting: the value for `CCN(CCCl)c1ccc(NC(=O)NCCCl)cc1` [Compound 10] was 222%.
As to `O=C(NCCF)Nc1ccc(N(CCCl)CCOc2ccccc2)cc1` [Compound 23], in the experiment with P388 leukemia (50 mg/kg), the “T/C (%)” value was determined as 156%.
